Data from patent publication EP0394122A2, “Use of tetracyclines to manufacture a medicament for the treatment and prevention of AIDS” (priority 1989, dated 1990).

What was measured:
[1] = test system: virus HIV (souche LAV-BRU); experiment: Inhibition of the cytopathogenic effect of HIV in infected human lymphocyte culture (MTT viability); format: cell-based; conditions: 21 days after infection, human lymphocytes
Procedure: La source des leucocytes humains est un stock congelé en N₂ liquide (100 x 10⁶ cellules/ampoule) de leucocytes obtenus sur cytaphérèse d'individus (donneurs) sains. Au moment de l'essai, les cellules sont décongelées, mises en suspension dans 80 % de sérum de veau foetal (SVF) et 20 % de diméthylsulfoxyde et centrifugées à 1000 rpm (10 minutes). Le culot est mis en suspension dans un milieu RPMI [contenant 10 % Lymphocult (Interleukine 2 en provenance de Biotest Diagnostic), 10 % de SVF, pénicilline et streptomycine, respectivement 40 U/ml et 40 µg/ml], à raison de 1 x 10⁶ cellules/ml. Habituellement, on utilise un flacon de culture cellulaire contenant 40 à 60 ml de cette suspension cellulaire. Les cellules sont incubées 4 jours en présence de phytohémagglutinine PHA (0,1 % DIFCO), à 37°C sous une atmosphère contenant 95 % d'air et 5 % de gaz carbonioue. Les cellules sont alors centrifugées, lavées une fois dans du milieu frais (ci-dessus) et remises en suspension dans le même milieu à 1 x 10⁶ cellules/ml [(RPMI 10 % de SVF, 10 % de Lymphocult-antibiotiques ci-dessus) mais contenant 10 U/ml d'anticorps anti-interferon (IFN α) 5 µg/ml de prolybrène.
200 µl de cette suspension cellulaire (200.000 cellules) sont déposés dans des puits d'une microplaque de cultures (à 96 puits). A chaque puits, on ajoute 25 µl du produit à tester [dilué 10 fois dans du tampon phosphate isotonique (TPI)] ou 25 µl du solvant TPI pour le contrôle. L'essai est fait en 2 séries : sur cellules infectées (pour déterminer l'activité antivirale) et sur cellules non infectées pour déterminer l'activité antiproliférative (cytotoxicité). On infecte alors avec 25 µl du virus HIV (souche LAV-BRU), alors que l'autre série reçoit (par puits) 25 µl du milieu (ci-dessus). Les cultures sont incubées 7 jours à 37°C (95 % d'air, 5 % de CO₂). 200 µl de surnageant sont alors prélevés, rejetés ou utilisés pour la détermination de l'activité transcriptase inverse. Les cellules du fond (sous 50 µl) sont alors soit testées pour leur viabilité (test MTT), soit additionnées de 200 µl de milieu frais (ci-dessus). Dans ce dernier cas, l'incubation est prolongée pendant encore 7 jours (test au jour 14). L'opération peut être répétée une semaine après (test au jour 21).

[2] = test system: reverse transcriptase du virus HIV; experiment: Reverse transcriptase activity in culture supernatant of infected, protected CEM cells (virus production); format: cell-based
Excerpt: Chaque échantillon est divisé en 2 parties, l'une recevant à nouveau le produit étudié et l'autre cultivée en l'absence de produit.
Les cellules sont cultivées pendant 2 mois.
Les cellules infectées traitées ou non de manière continue par la minocycline ou la doxycycline ont été examinées en ce qui concerne la production de virus. La technique utilisée pour la détermination virale a été celle du dosage de la reverse transcriptase du virus HIV.
L'activité de la reverse transcriptase est mesurée directement sur 50 µl de surnageant de culture. 10 µl de tampon contenant 0,5 M de KCl, 5 mM de dithiotreitol (DTT) et 0,5 % de Triton X-100 sont ajoutés à tous les micropuits contenant les 50 µl de surnageant à tester. 40 µl de tampon contenant 1,25 mM d'éthylène glycol-bis(β-aminoéthyl éther) (EGTA), 0,125 M de Tris.HCl pH 7,8, 12,5 mM de MgCl₂, 3 µCi de (³H) Thymidine triphosphate (TTP), 0,05 DO₂₆₀ d'acide polyadénylique - acide thymidylique (poly rA-oligo dT) sont ajoutés ensuite. La microplaque est couverte au moyen d'un film plastique et incubée 60 minutes à 37°C.
On arrête la réaction en ajoutant 20 µl d'une solution glacée de 120 mM de Na₄P₂O₇ dans 60 % d'acide trichloracétique et les échantillons sont placés 15 minutes sur un lit de glace.
Les précipités sont filtrés sur fibres de verre en utilisant un laveur de cellules (Skatron) et les filtres sont lavés avec une solution de 12 mM de Na₄P₂O₇ dans 5 % d'acide trichloracétique.
Les filtres sont séchés et la radioactivité est comptée après ajout d'un liquide scintillant. Les essais sont faits en triple.

[3] = product present du jour 0 au jour 18 (1,2 µg/ml), day 20 after infection
[4] = product present du jour 0 au jour 18 (1,2 µg/ml), day 39 after infection
[5] = product present du jour 0 au jour 18 (1,2 µg/ml), day 42 after infection
[6] = product present du jour 0 au jour 18 (1,2 µg/ml), day 46 after infection
[7] = product present du jour 0 au jour 18 (1,2 µg/ml), day 49 after infection
[8] = product present du jour 0 au jour 18 (1,2 µg/ml), day 53 after infection
[9] = product present du jour 0 au jour 18 (1,2 µg/ml), day 56 after infection
[10] = product present du jour 0 au jour 18 (1,2 µg/ml), day 60 after infection
[11] = product present du jour 0 au jour 18 (1,2 µg/ml), day 80 after infection
[12] = product present du jour 0 à la fin de l'expérience (1,2 µg/ml), day 20 after infection
[13] = product present du jour 0 à la fin de l'expérience (1,2 µg/ml), day 39 after infection
[14] = product present du jour 0 à la fin de l'expérience (1,2 µg/ml), day 42 after infection
[15] = product present du jour 0 à la fin de l'expérience (1,2 µg/ml), day 46 after infection
[16] = product present du jour 0 à la fin de l'expérience (1,2 µg/ml), day 49 after infection
[17] = product present du jour 0 à la fin de l'expérience (1,2 µg/ml), day 53 after infection
[18] = product present du jour 0 à la fin de l'expérience (1,2 µg/ml), day 56 after infection
[19] = product present du jour 0 à la fin de l'expérience (1,2 µg/ml), day 60 after infection
[20] = product present du jour 0 à la fin de l'expérience (1,2 µg/ml), day 80 after infection

## doxycycline [Exemple 2]
[1]; 0,04 µg/ml
  Cellules infectées Densité optique: 0,530
[1]; 0,12 µg/ml
  Cellules infectées Densité optique: 0,590
[1]; 0,37 µg/ml
  Cellules infectées Densité optique: 0,550
[1]; 10 µg/ml
  Cellules infectées Densité optique: 0,125
[1]; 1,11 µg/ml
  Cellules infectées Densité optique: 0,773
[2]; [3]
  Activité de la reverse transcriptase: 21 coups/mn x 10⁻³
[2]; [4]
  Activité de la reverse transcriptase: 30 coups/mn x 10⁻³
[2]; [5]
  Activité de la reverse transcriptase: 31 coups/mn x 10⁻³
[2]; [6]
  Activité de la reverse transcriptase: 21 coups/mn x 10⁻³
[2]; [7]
  Activité de la reverse transcriptase: 24 coups/mn x 10⁻³
[2]; [8]
  Activité de la reverse transcriptase: 14 coups/mn x 10⁻³
[2]; [9]
  Activité de la reverse transcriptase: 2 coups/mn x 10⁻³
[2]; [10]
  Activité de la reverse transcriptase: 3 coups/mn x 10⁻³
[2]; [11]
  Activité de la reverse transcriptase: 2 coups/mn x 10⁻³
[2]; [12]
  Activité de la reverse transcriptase: 25 coups/mn x 10⁻³
[2]; [13]
  Activité de la reverse transcriptase: 26 coups/mn x 10⁻³
[2]; [14]
  Activité de la reverse transcriptase: 31 coups/mn x 10⁻³
[2]; [15]
  Activité de la reverse transcriptase: 27 coups/mn x 10⁻³
[2]; [16]
  Activité de la reverse transcriptase: 18 coups/mn x 10⁻³
[2]; [17]
  Activité de la reverse transcriptase: 10 coups/mn x 10⁻³
[2]; [18]
  Activité de la reverse transcriptase: 2 coups/mn x 10⁻³
[2]; [19]
  Activité de la reverse transcriptase: 1,4 coups/mn x 10⁻³
[2]; [20]
  Activité de la reverse transcriptase: 2 coups/mn x 10⁻³

## CN(C)c1ccc(O)c2c1C[C@H]1C[C@H]3[C@H](N(C)C)C(O)=C(C(N)=O)C(=O)[C@@]3(O)C(O)=C1C2=O [Exemple 5, minocycline]
[1]; 0,04 µg/ml
  Cellules infectées Densité optique: 0,530
[1]; 0,12 µg/ml
  Cellules infectées Densité optique: 0,435
[1]; 0,37 µg/ml
  Cellules infectées Densité optique: 0,640
[1]; 10 µg/ml
  Cellules infectées Densité optique: 0,540
[1]; 1,11 µg/ml
  Cellules infectées Densité optique: 0,835
[1]; 3,33 µg/ml
  Cellules infectées Densité optique: 0,750
[2]; [3]
  Activité de la reverse transcriptase: 27 coups/mn x 10⁻³
[2]; [4]
  Activité de la reverse transcriptase: 21 coups/mn x 10⁻³
[2]; [5]
  Activité de la reverse transcriptase: 37 coups/mn x 10⁻³
[2]; [6]
  Activité de la reverse transcriptase: 19 coups/mn x 10⁻³
[2]; [7]
  Activité de la reverse transcriptase: 21 coups/mn x 10⁻³
[2]; [8]
  Activité de la reverse transcriptase: 17 coups/mn x 10⁻³
[2]; [9]
  Activité de la reverse transcriptase: 3 coups/mn x 10⁻³
[2]; [10]
  Activité de la reverse transcriptase: 2 coups/mn x 10⁻³
[2]; [11]
  Activité de la reverse transcriptase: 3 coups/mn x 10⁻³
[2]; [12]
  Activité de la reverse transcriptase: 25 coups/mn x 10⁻³
[2]; [13]
  Activité de la reverse transcriptase: 33 coups/mn x 10⁻³
[2]; [14]
  Activité de la reverse transcriptase: 33 coups/mn x 10⁻³
[2]; [15]
  Activité de la reverse transcriptase: 29 coups/mn x 10⁻³
[2]; [16]
  Activité de la reverse transcriptase: 37 coups/mn x 10⁻³
[2]; [17]
  Activité de la reverse transcriptase: 14 coups/mn x 10⁻³
[2]; [18]
  Activité de la reverse transcriptase: 2 coups/mn x 10⁻³
[2]; [19]
  Activité de la reverse transcriptase: 2 coups/mn x 10⁻³
[2]; [20]
  Activité de la reverse transcriptase: 5 coups/mn x 10⁻³
